# Legend:
# Format in all cases: cell-based, human
# [1] = tested on: tumor cell lines; assay: MHC Class I and Class II surface staining, statements over a panel of tumor cell lines; conditions: HeLa, MCF-7, U2-OS, MU-89, U118, Jurkat, Raji (Table 19)
# Experimental: (§1) For surface staining of HLA Class I and II antigens, cells were harvested using CellStripper™ from Mediatech (Manassas, Va.). All staining steps were performed on ice. Following a first incubation with antibody to Class I (W6/32) or Class II (L243) for 30 minutes. Stained cells were washed twice with cold PBS and then stained with a goat anti-mouse FITC secondary antibody to allow for quantitative analysis by flow cytometry. For evaluation of cytoplasmic antigens, including Melan-A/MART-1 and gp100, cells were first fixed in paraformaldehyde and permeabilized with saponin as previously described. Staining for cytoplasmic antigens was carried out at room temperature (22° C.).
# [2] = tested on: Raji B cell lymphoma cells; assay: Surface antibody staining and flow cytometry (MHC Class I/II)
# Method in brief: (§2)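 Cells pre-treated 4 days with IFN-beta, then re-plated for 3-day treatments. Harvested non-enzymatically and stained on ice for 30 min with W6/32 (Class I) or L243 (Class II), then FITC goat anti-mouse secondary; surface levels quantified by flow cytometry.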
# [3] = tested on: MCF-7 breast cancer cells; assay: as above
# Method in brief: as §2
# [4] = tested on: U2-OS osteosarcoma cells; assay: as above
# Method in brief: as §2
# [5] = tested on: EBV-19 B cell lymphoma cells; assay: as above; conditions: three days, IFN-β 5000 Units/ml
# Experimental: (§3) Intracellular staining and flow cytometric analyses of cytoplasmic Melan-A/MART-1, and gp100 expression were performed as described previously. Cells were fixed with 1% formaldehyde, permeabilized with 0.1% saponin, stained with monoclonal antibodies to melanocyte antigens. Antibodies were obtained with specificity for: Melan-A/MART-1 from Vector Labs (Burlingame, Calif.); gp100/HMB45 from DakoCytomation (Carpinteria, Calif.) and then visualized with goat anti-mouse FITC-conjugated secondary antibody from Invitrogen (Frederick, Md.). The level of EGFP was determined by flow cytometry of unfixed cells washed and resuspended in 1×PBS. Surface staining of MHC Class I was carried out using the antibody W6/32 on cells harvested with Cell Stripper from MediaTech Inc. (Manassas, Va.) and carried out on ice.
# as §1
# [6] = tested on: Jurkat T cell lymphoma cells; assay: as above
# Experimental: as §3, §1
# [7] = tested on: Roth melanoma cell line; assay: Intracellular antibody staining and flow cytometry (gp100/HMB45); conditions: Roth (BRAF WT, NRAS M/M); 3 days; 17-AEP 0.50, CCT018159 2.50, PU-H71 0.25 μg/ml
# Experimental: (§4) Several cell lines expressing varying native-sequences, (wild-type (WT) or mutant (M) alleles of these genes were evaluated), to determine if there is a relationship between levels of Hsp90 inhibitor-mediated antigen up-regulation and BRAF and NRAS mutational status. Mutant status of the NRAS and BRAF loci were determined previously.
# (§5) Cells were plated at a density of 1×10^5 in 1 ml of medium in a 24-well plate and cultured for varying times as indicated in results. Typically, 3 days of culture in the presence of Hsp90 inhibitors was optimal for the functional studies performed. After incubation, cells were collected by trypsinization and then evaluated by flow cytometry.
# as §3, with “Surface staining of MHC Class I was carried out using the antibody W6/32 on cells harvested with Cell Stripper from MediaTech Inc. (Manassas, Va.) and carried out on ice.” left out
# [8] = tested on: MM455 melanoma cell line; assay: as above; conditions: MM455 (BRAF M/WT, NRAS WT); 3 days; 17-AEP 0.50, CCT018159 2.50, PU-H71 0.25 μg/ml
# Experimental: as §4, §5
# as §3, with “Surface staining of MHC Class I was carried out using the antibody W6/32 on cells harvested with Cell Stripper from MediaTech Inc. (Manassas, Va.) and carried out on ice.” left out
# [9] = tested on: A375 tumor cells; assay: Western blot (BRAF, phosphorylated MEK and ERK)
# Experimental: FIG. 17 is a series of Western blots that show changes in protein levels and state of phosphorylation after treatment with an Hsp90 inhibitor. A primary Anti BRAF (H145) antibody was used at a 1:5000 dilution. A secondary Goat anti rabbit antibody was used at a dilution of 1:5000. 30 ug total protein was added to each well.
# Cell lysates were prepared using RIPA buffer from Santa Cruz (Santa Cruz, Calif.) containing protease and phosphatase inhibitors. Protein concentrations were determined using Bradford assay from BioRad (Hercules, Calif.). Equal amounts of protein were loaded in each well for PAGE analysis. Proteins were transferred to PVDF membranes from Pierce Biotechnology (Rockford, Ill.). Blocking and both primary and secondary antibody incubations were performed using Starting Block from Pierce (Rockford, Ill.). Blots were washed with 1×TBS with 0.5% tween 20. Primary antibodies used BRAF H-145 and TRP-2 from Santa Cruz (Santa Cruz, Calif.), and Phos ERK from Cell Signaling Technologies (Danvers, Mass.) beta actin from Sigma (St. Louis, Mo.). Goat anti-rabbit HRP conjugated secondary antibody was purchased from Pierce (Rockford, Ill.). Chemiluminesce was performed using the Femto kit form Pierce (Rockford, Ill.). […] Sizes of proteins were determined by comparison to the Broad prestained protein standard ladder from BioRad (Hercules, Calif.).
# [10] = three days, IFN-β 5000 Units/ml, IFN-γ 100 ng/ml, PU-H71 0.3 mg/ml
# [11] = MCF-7 cells, Table 20, single agent or simultaneous combination
# [12] = U2-OS cells, Table 20, single agent or simultaneous combination
# [13] = U2-OS, three days, IFN-β 5000 Units/ml, IFN-γ 100 ng/ml, PU-H71 0.3 mg/ml
structure (smiles),measurement,setting,value
CC(C)NCCCn1c(Sc2cc3c(cc2I)OCO3)nc2c(N)ncnc21 [PU-H71],Class II MHC expression over the tumor panel,[1],no induction
same,"Class I MHC, geometric mean of surface staining (W6/32)","[2]; 4 day IFN-β pre-treatment (5000 Units/ml), then 3 days with fresh IFN-β, with PU-H71 0.3 mg/ml where labelled (label IFN-β: no inhibitor)",129
same,"Class I MHC, geometric mean of surface staining (W6/32)","[2]; 4 day IFN-β pre-treatment (5000 Units/ml), then 3 days without IFN-β, with PU-H71 0.3 mg/ml where labelled (label IFN-β: no inhibitor)",139
same,L243 (MHC Class II surface staining),[2]; single agent,79.0
same,"Class I MHC, geometric mean of surface staining (W6/32)","[2]; single agent for 3 days, no IFN-β pre-treatment, IFN-β 5000 Units/ml, PU-H71 0.3 mg/ml",157
same,"MHC Class I, geometric mean of surface staining (W6/32)",[2]; [10],139
same,"MHC Class II, geometric mean of surface staining (L2443)",[2]; [10],160
same,"MHC Class I, geometric mean of surface staining (W6/32)","[2]; three days, IFN-β 5000 Units/ml, PU-H71 0.075-0.3 mg/ml",79
same,"Class I MHC, geometric mean of surface staining (W6/32)","[3]; MCF-7, 4 day IFN-β pre-treatment (5000 Units/ml), then 3 days with fresh IFN-β, with PU-H71 0.3 mg/ml where labelled (label IFN-β: no inhibitor)",213
same,"Class I MHC, geometric mean of surface staining (W6/32)","[3]; MCF-7, 4 day IFN-β pre-treatment (5000 Units/ml), then 3 days without IFN-β, with PU-H71 0.3 mg/ml where labelled (label IFN-β: no inhibitor)",227
same,"Class II induction, combination","[3]; MCF-7, PU-H71 and IFN-gamma",inhibited
same,"Class I stimulation induced with IFN-beta or IFN-gamma, combination","[3]; MCF-7, addition of PU-H71",diminished
same,L243 (MHC Class II surface staining),"[3]; MCF-7, single agent",4.7
same,"Class I MHC, geometric mean of surface staining (W6/32)","[3]; MCF-7, single agent for 3 days, no IFN-β pre-treatment, IFN-β 5000 Units/ml, PU-H71 0.3 mg/ml",61
same,"MHC Class I, geometric mean of surface staining (W6/32)","[3]; MCF-7, three days, IFN-β 5000 Units/ml, PU-H71 0.075-0.3 mg/ml",61
same,L243 (MHC Class II surface staining),[3]; [11],4.7
same,W6/32 (MHC Class I surface staining),[3]; [11],113.0
same,L243 (MHC Class II surface staining),[4]; [12],1.9
same,W6/32 (MHC Class I surface staining),[4]; [12],109.0
same,"Class I induction, combination","[4]; U2-OS, PU-H71 in combination with interferons",highest levels are achieved
same,"Class II antigen induction seen with IFN-gamma, combination","[4]; U2-OS, PU-H71 together with IFN-gamma",prevented
same,L243 (MHC Class II surface staining),"[4]; U2-OS, single agent",1.8
same,"MHC Class I, geometric mean of surface staining (W6/32)",[4]; [13],87
same,"MHC Class II, geometric mean of surface staining (L2443)",[4]; [13],4
same,"MHC Class I, geometric mean of surface staining (W6/32)","[4]; U2-OS, three days, IFN-β 5000 Units/ml, PU-H71 0.075-0.3 mg/ml",108
same,"MHC Class II, geometric mean of surface staining (L2443)","[5]; IFN-γ 100 ng/ml, PU-H71 0.3 mg/ml",114
same,"MHC Class I, geometric mean of surface staining (W6/32)","[5]; IFN-γ 100 ng/ml, PU-H71 0.3",124
same,"MHC Class I, geometric mean of surface staining (W6/32)",[5]; PU-H71 0.075-0.3,119
same,L243 (MHC Class II surface staining),[6]; single agent,1.2
same,"MHC Class I, geometric mean of surface staining (W6/32)","[6]; three days, IFN-β 5000 Units/ml, IFN-γ 100 ng/ml, PU-H71 0.3 μg/ml",24
same,"MHC Class II, geometric mean of surface staining (L2443)",[6]; [10],1
same,"MHC Class I, geometric mean of surface staining (W6/32)","[6]; three days, IFN-β 5000 Units/ml, PU-H71 0.075-0.3 μg/ml",41
CCc1cc(-c2n[nH]c(C)c2-c2ccc3c(c2)OCCO3)c(O)cc1O [CCT018159],"HMB45, level of induction relative to untreated control cells",[7],1.95
same,"HMB45, level of induction relative to untreated control cells",[8],1.16
CO[C@H]1/C=C\C=C(/C)C(=O)NC2=CC(=O)C(NCCN3CCCC3)=C(C[C@@H](C)C[C@H](OC)[C@H](O)[C@@H](C)/C=C(\C)[C@@H]1OC(N)=O)C2=O [17-AEP],BRAF protein level (Western blot),[9]; 3 days,reduces levels of BRAF
same,Phosphorylated MEK and Phosphorylated ERK levels (Western blot),[9]; 3 days (FIG. 17),decreased levels

# Reference: patent publication US20140335050A1, “METHODS, COMPOSITIONS, AND KITS FOR THE TREATMENT OF CANCER” (The General Hospital Corporation, priority 2011, published 2014)
